Where two headings read alike, the source gives them in different places.
Tests used:
human DGAT1 = biological target: T1, human DGAT1 (Homo sapiens, UniProt O75907); assay: DGAT1 FlashPlate assay: inhibition of DGAT1 activity in membrane preparations; type: biochemical; conditions: human DGAT1 membranes from SF9 cells, [3H]-oleoylCoA, 120 min at 37° C.; read-out: pIC50 (-logIC50, 50% inhibition of DGAT1 activity) (converted)
T1 construct: FLAG (N); made in house; host or cells: SF9 insect cells (pFastBac / baculovirus); total cell membranes
T1 sequence (O75907 1-488): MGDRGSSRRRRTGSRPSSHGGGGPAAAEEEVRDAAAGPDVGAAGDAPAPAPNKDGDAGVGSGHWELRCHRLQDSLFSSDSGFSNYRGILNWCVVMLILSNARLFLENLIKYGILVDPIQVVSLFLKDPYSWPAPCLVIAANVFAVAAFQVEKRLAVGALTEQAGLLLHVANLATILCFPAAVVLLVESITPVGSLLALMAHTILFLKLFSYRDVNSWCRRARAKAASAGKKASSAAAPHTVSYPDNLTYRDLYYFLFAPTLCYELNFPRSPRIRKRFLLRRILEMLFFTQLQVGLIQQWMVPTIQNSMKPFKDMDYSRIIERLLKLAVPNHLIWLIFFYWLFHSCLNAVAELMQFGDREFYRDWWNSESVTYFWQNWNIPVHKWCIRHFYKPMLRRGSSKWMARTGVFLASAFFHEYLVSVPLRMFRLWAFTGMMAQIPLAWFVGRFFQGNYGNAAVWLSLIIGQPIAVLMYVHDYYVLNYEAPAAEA
Source text: The inhibiting activity of compounds of Class A, Class B, Class C and Class D on DGAT1 activity was screened in a single well procedure assay using DGAT1 comprising membrane preparations and DGAT1 substrate comprising micelles and determining formed radio-active triacylglycerol coming in close proximity of a flashplate surface by radioluminescence.
Said assay is described in full detail in WO2006/067071, the content of which is incorporated herein by reference.
By DGAT1 activity is meant the transfer of coenzyme A activated fatty acids to the 3-position of 1,2-diacylglycerols, thus forming a triglyceride molecule, by enzyme DGAT1.
human DGAT1 (NM012079.2) was cloned into the pFastBac vector, containing translation start, a FLAG-tag at the N-terminus as described in literature and a viral Kozak sequence (AAX) preceding the ATG to improve expression in insect cells. Expression was done as described in literature (Cases, S., Smith, S. J., Zheng, Y., Myers H. M., Lear, S. R., Sande, E., Novak, S., Collins, C., Welch, C. B., Lusis, A. J., Erickson, S. K. and Farese, R. V. (1998) Proc. Natl. Acad. Sci. USA 95, 13018-13023.) using SF9 cells.
72h transfected SF9 cells were collected by centrifugation (13000 rpm-15 min-4° C.) and lysed in 2×500 ml lysisbuffer (0.1M Sucrose, 50 mM KCl, 40 mM KH2PO4, 30 mM EDTA pH 7.2. Cells were homogenized by cell disruptor. After centrifugation 1380 rpm-15 min-4° C. (SN discarded), pellet was resuspended in 500 ml lysisbuffer and total cell membranes collected by ultracentrifugation at 34000 rpm(100 000 g) for 60 min (4° C.). The collected membranes were resuspended in lysis buffer, divided in aliquots and stored with 10% glycerol at −80° C. until use.
• a) 1,2-dioleoyl-sn-glycerol, 10 mg/ml (1,2-diacylglycerol (DAG)) Dissolve in acetonitrile; evaporate the acetonitrile solution under nitrogen and reconstitute in chloroform at a final concentration of 10 mg/ml. • b) L-α-phosphatidylcholine, 1 mg/ml (phosphatidylcholine (PC)) • Dissolve in chloroform at a final concentration of 1 mg/ml and store at 4° C. • c) L-α-phosphatidyl-L-serine, 1 mg/ml (phophatidylserine (PS)) • Dissolve in chloroform at a final concentration of 1 mg/ml and store at 4° C. Method
Add 1 ml dioleoyl-sn-glycerol (10 mg/ml) to 10 ml of L-α-phosphatidylcholine (1 mg/ml) and 10 ml of L-α-phosphatidyl-L-serine (1 mg/ml) in a thick glass recipient. Evaporate under nitrogen and put on ice for 15 min Reconstitute in 10 ml Tris/HCl (10 mM, pH 7.4) by sonication on ice. The sonification process includes sonification cycles of 10 seconds in the sonification bath followed by 10 seconds cool down on ice and repeating this sonification cycle till a homogeneous solution is obtained (takes about 15 min). The thus obtained micelles are stored at −20° C. till later use and contain DAG at a final concentration of 1.61 mM.
• a) Assaybuffer • 50 mM Tris-HCl (pH 7.4), 150 mM MgCl2, 1 mM EDTA, 0.2% BSA. • b) N-ethylmaleimide, 5M • Dissolve 5 g into a final volume of 8 ml DMSO 100% and store at −20° C. in aliquots till later use. • c) Substrate mix (for 1 384 well plate=3840 μl) • 612 μl micelles stock (51 μM final) • 16.6 μl oleoylCoA 9.7 mM • 23 μl [^3H]-oleoylCoA (49 Ci/mmol, 500 μCi/ml) • 3188.4 μl Tris pH 7.4, 10 mM • d) Enzyme mix (for 1 384 well plate=3520 μl) (5 μg/ml) • Add 11.73 μl of DGAT membrane stock (1500 μg/ml stock) to 3508 μl assay buffer. • e) Stop mix (for 1 384 well plate=7.68 ml) (250 mM) • Add 384 μl of N-ethylmaleimide (5M) to 3.456 ml DMSO 100%, and further dilute 3.84 ml of said solution with 3.84 ml DMSO 10%. Method
DGAT activity in membrane preparations was assayed in 50 mM Tris-HCl (pH 7.4), 150 mM MgCl2, 1 mM EDTA and 0.2% BSA, containing 50 μM DAG, 32 μg/ml PC/PS and 8.4 μM [^3H]-oleoylCoA (at a specific activity of 30 nCi/well) in a final volume of 50 μl in 384-well format using the red shifted Basic Image FlashPlate™ (Perkin Elmer Cat.No. SMP400). […]

[1] = 0.04% compound 358 of Class D and/or 0.05% fenofibrate in diet
Procedure: Male C57BL/6 mice were housed in individually ventilated cages under controlled temperature (21° C.), humidity (45-65%) and light (12 h-12 h reverse light/dark cycle; Lights on—6 PM-6 AM). Mice were set on 60 kcal % fat energy diet until their average body weight was over 45 grams, at which time they were switched to a 45 kcal % fat diet.
For the purpose of Tests A, B and C, the mice were moved into modified type-2 cages with: doublewide food cup, wire grids and a tissue for bedding for several months before experiment to adapt to new housing/feeding conditions. Food (Research diets 45 kcal % diet D12451—see Scheme A) was provided in powdered form in a food hopper located off the front of the cage. […]
The mice were weighted the day before trial onset. […] The food intake the day before trial onset was also measured. […]
Food cups were filled and weighted daily during the experiment. Body weight was recorded every 2nd or 3rd day.
Food Intake and Body Weight data were analyzed using General Linear Models procedures appropriate for a 2×2 factorial design with blocking and repeated measures. […] Results were expressed as means±SEM (standard error of the mean). […]

[2] = Test A: food intake, body weight and serum biochemistry, DGAT inhibitor, fenofibrate or both in diet; type: in vivo, DIO C57BL/6 mice; conditions: 12 day trial, 45 kcal % fat diet; for cumulative food intake less than the control group: 0.04% D and/or 0.05% F in diet, only D+F significant (P<0.05)
Source text: Diet was provided in powder form.
At the end of test A, blood was collected under isoflurane anesthesia for serum biochemistry determinations.

| IC50 (human DGAT1) | melting point | SMILES | 21 days body weight change compared to controls (2x2 factorial) ([1]; main effects P<0.05, interaction P>0.05) | daily food intake compared to control mice ([1]; 45 kcal % fat diet, n=8/group) | cumulative food intake less than the control group [2] | daily food intake compared to control mice ([2]; 0.04% compound 223 of Class D (D) and/or 0.05% fenofibrate (F) in diet) |
| --- | --- | --- | --- | --- | --- | --- |
| 25.7 nM | 199 to 200 °C | COc1cc(CNC(=O)c2ccc(N3CCN(C(=O)Cc4c(Cl)cc(CN5CCCC5)cc4Cl)CC3)cc2)cc(OC)c1 [358-Class D, 4-[4-[[2,6-dichloro-4-(1-pyrrolidinylmethyl)phenyl]acetyl]-1-piperazinyl]-N-[(3,5-dimethoxyphenyl)methyl]-benzamide] | gained less weight than controls | not significantly less than control mice | – | – |
| 13.5 nM | 164 to 166 °C | CC(=O)N1CCN(Cc2cc(Cl)c(CC(=O)N3CCN(c4ccc(C(=O)NCc5cccc(N6CCCC6)c5)cc4)CC3)c(Cl)c2)CC1 [361-Class D, 4-[4-[[4-[(4-acetyl-1-piperazinyl)methyl]-2,6-dichlorophenyl]acetyl]-1-piperazinyl]-N-[[3-(1-pyrrolidinyl)phenyl]methyl]-benzamide] | – | – | – | – |
| 9.12 nM | 123 to 126 °C | COc1cc(CNC(=O)c2ccc(N3CCN(C(=O)Cc4c(Cl)cc(CN5CCN(C(C)=O)CC5)cc4Cl)CC3)cc2)cc(OC)c1 [362-Class D, 4-[4-[[4-[(4-acetyl-1-piperazinyl)methyl]-2,6-dichlorophenyl]acetyl]-1-piperazinyl]-N-[(3,5-dimethoxyphenyl)methyl]-benzamide] | – | – | – | – |
| 11.5 nM | 241 to 243 °C | CS(=O)(=O)N1CCN(Cc2cc(Cl)c(CC(=O)N3CCN(c4ccc(C(=O)NCc5cccc(N6CCCC6)c5)cc4)CC3)c(Cl)c2)CC1 [363-Class D, 4-[4-[[2,6-dichloro-4-[[4-(methylsulfonyl)-1-piperazinyl]methyl]phenyl]acetyl]-1-piperazinyl]-N-[[3-(1-pyrrolidinyl)phenyl]methyl]-benzamide] | – | – | – | – |
| 5.75 nM | 152 to 154 °C | COc1cc(CNC(=O)c2ccc(N3CCN(C(=O)Cc4c(Cl)cc(CN5CCN(S(C)(=O)=O)CC5)cc4Cl)CC3)cc2)cc(OC)c1 [364-Class D, 4-[4-[[2,6-dichloro-4-[[4-(methylsulfonyl)-1-piperazinyl]methyl]phenyl]acetyl]-1-piperazinyl]-N-[(3,5-dimethoxyphenyl)methyl]-benzamide] | – | – | – | – |
| – | – | COc1ccc(CC(=O)Nc2ccc(N3CCN(C(=O)Nc4c(Cl)cc(CN5CCCC5)cc4Cl)CC3)cc2)cc1 [compound 223 of Class D] | – | – | 3.2% | not significantly less than control mice |
| – | – | CC(C)OC(=O)C(C)(C)Oc1ccc(C(=O)c2ccc(Cl)cc2)cc1 [fenofibrate, reference compound] | – | – | 7.5% | – |

Reference: patent publication US9107946B2, “Drug combinations comprising a DGAT inhibitor and a PPAR-agonist” (Janssen Pharmaceutica NV, priority 2008, dated 2015)
